{"source": "patent US4239664A", "about": "“Anti-thrombogenic PVP-heparin polymer” (Research Corporation, priority 1978, dated 1980)", "key": {"[1]": {"settings": "in vivo; cited from earlier work"}, "[2]": {"tested_on": "anticoagulant activity", "assay": "Biological (anticoagulant) activity of heparin and PVP-heparins", "format": "biochemical", "settings": "Table I; heparin 100"}}}
{"substance": "Heparin", "values": [{"measurement": "Solubility in Water", "value": 70, "unit": "g/100 ml"}, {"measurement": "dose dependence of half-life in man", "setting": "[1]", "value": "does not increase"}, {"measurement": "half-life of heparin in man", "setting": "[1]", "value": "1 - 11/2"}, {"measurement": "% Biological Activity", "setting": "[2]", "value": 100, "unit": "%"}]}
